Test results: patent US8562947B2, “Oxidized avidin with high residency time in the treated tissues” (Sigma-Tau Industrie Farmaceutiche Riunite S.p.A., priority 2007, dated 2013)
“And” between values parts separate entries of the source, which are not always exact repeats. Identical values can stand only once.

Tests used:
[1] = Isothermal Titration Calorimetry of avidin/ST2210 interaction; assay type: binding; conditions: for KA / N (stoichiometry): ITC with ST2210; for association constants (KA): ITC with ST2210, text
[2] = Thermal stability and conformational changes by circular dichroism spectroscopy (melting curves); assay type: physicochemical; conditions: for thermal denaturation reversibility: heated without biotin; for p (slope of sigmoidal curve) / Tm: without biotin; for Tm: dichroic signal at 225 nm, 25-95° C.
Protocol: Thermal stability and conformational changes were determined by circular dichroism spectroscopy before and after oxidation, with and without 4 equivalents of biotin. Melting curves were recorded by following the decrease of dichroic signal at 225 nm in the temperature range 25-95° C. The point of inflection and slope (p) of sigmoidal curves were calculated by means of Boltzman fitting model of the scientific graphing and data analysis Origin® 7.0 software and represent the point of transition through the denatured condition.
For each specific compound, the thermal stability corresponds to the temperature which matches the point of inflection of the corresponding curve registered in the temperature range 25-95° C.

[3] = Long term tissue permanence of wild type and oxidized avidins; assay type: in vivo, Balb/c nu/nu mice; conditions: referred to the 1 hour level; treated hind limb
[4] = parameters: species or system Balb/c nu/nu mice; conditions: mouse, in vivo
Protocol: The animal model of intraoperative avidination for radionuclide treatment IART® was set up by performing a surgical cut in one hind limb of a mouse, infiltrating radiolabelled avidin in the surgical margins and surrounding tissues and measuring radioactivity in the treated limb at different time points after administration. In a parallel group of mice, the radioactive avidin was infiltrated to the limb without surgery.
The amount of radioactivity, after 1 and 24 hours from administration was similar in the surgically treated and not surgically treated animals. Therefore, further studies were performed by infiltrating avidin without surgery. […] Labelled avidin was separated from free iodine by chromatography on a PD-10 column (Amersham Biosciences, Uppsala, Sweden) and oxidized as previously described in the Example 1 without any prior HABA protection.
Mice were sacrificed 1, 24 or 48 hours after ^111In-ST2210 administration and the treated and controlateral limbs, kidney, liver and blood samples were collected and counted in a gamma-counter (Camberra Packard, Schwadorf, Austria).

[5] = BiotinDOTA (ST2210) binding capacity by HABA assay; conditions: WTavidin value assumed as 100%
[6] = Tissue permanence of wild type, pegylated or oxidized avidins; assay type: in vivo, C57Bl/6 mice; conditions: 24 hours after i.m. injection in hind limb
Protocol: Radioactivity in the treated limb was measured by gamma counter (Camberra Packard, Schwadorf Austria).
Chemically modified avidins were previously described by other groups with the intent of improving the avidin half-life in circulation (Caliceti P., et al., J. Control. Release, 2002, 83, 97; Salmaso S., et al., Int. J. Pharm., 2007, 340, 20). […] After 24 hours from injection, the animals were sacrificed and radioactivity in the treated limb was measured by gamma counter (Camberra Packard, Schwadorf Austria).

[7] = Tissue localization in cryosections of avidinated muscle (immunofluorescence, haematoxylin/eosin); assay type: in vivo, Balb/c nude mice; conditions: 24 hrs from injection
Protocol: OXavidinHABA was evaluated for tissue localization in comparison to WTavidin in cryosections of avidinated tissues after intramuscular injection into one hind limb of Balb/c nude mice (Harlan, Udine Italy). The muscles were excised 24 hrs after treatment and serial cryosections were prepared from each sample. Each slide was stained with haematoxylin/eosin to evaluate the tissue morphology or incubated with a mouse anti avidin antibody (A5680, Sigma Aldrich, Italy) followed by anti mouse Alexa fluor 488 (Invitrogen, Milan Italy). Finally, slides were mounted with coverslips and observed under microscope.

[8] = assay type: in vivo, Balb/c nu/nu mice; conditions: for distribution of 111In-ST2210 in non target organs: mouse, in vivo
Protocol: After 48 hours from injection, the animals received intravenously (i.v.) 5 μg of ^111In-ST2210.
Groups of 5 animals were sacrificed at the indicated time points and radioactivity in the treated limb as well as in other non target organs measured by gamma counter (Camberra Packard, Schwadorf Austria).
One group of animals received a first intravenous dose of 5 μg of cold ST2210 24 hours prior to a second one of 5 μg ^111In-ST2210. The former occurred 24 hours after avidination. The animals were sacrificed 2 hours after i.v. injection of radiolabelled-ST2210 and radioactivity in the treated limb was measured by gamma counter as above.

[9] = Permanence in rabbit mammary tissue; assay type: in vivo, rabbits; conditions: for % ID/breast (+/− SD) at 24 h: rabbit mammary tissue; for amount found in the mammary tissue: rabbit, after 24 hours
Protocol: OXavidinHABA was evaluated for its permanence in the mammary tissue in comparison to WTavidin. […] The animals were sacrificed after 24 h from injection and tissue samples of the injected area of about 200 mg were collected and counted in a gamma counter as previously described. The data are the average (+/−SD) of 3 determinations.

[10] = parameters: species or system Balb/c mice; conditions: mouse, in vivo
From the text: ^125I-OXavidinHABA was saturated in vitro with ST2210, purified from unbound ST2210 by ultrafiltration and intramuscularly injected into one hind limb of Balb/c mice. The same protocol was followed with regard to WTavidin.

[11] = mouse, in vivo
[12] = system: tumoral lesions of the mammary gland of NeuT mice; experiment: Therapeutic efficacy of pre-targeted brachytherapy in NeuT transgenic mice (whole mount analysis of mammary gland); assay type: in vivo, Balb-NeuT mice; conditions: compared to vehicle or WTavidin-treated breast; 90Y-ST2210 800 μCi
Protocol: Two animals/group were sacrificed 3 hours after administration and both breasts IV and III excised and counted in a gamma counter as above. Non target organs were also collected weighted and counted. Data are expressed as the % ID/g of tissue. The effect of this pre-targeted brachytherapy on the tumoral lesions were evaluated by whole mount analysis of the mammary gland as described previously (De Giovanni C., et al., Cancer Research, 2004, 64, 4001).

Substance: OXavidin: avidin oxidized with sodium periodate without prior HABA protection; NaIO4 concentration not stated at these places
- stoichiometry of interaction [1]: 1.2 molecules of ST2210 per molecule
- KA [1]: 645000 M⁻¹
- thermal denaturation reversibility [2]: irreversible
- p (slope of sigmoidal curve) [2]: 8.9 and 8.9 ± 0.1
- Tm [2]: 74.3 °C and 74.3 ± 0.1 °C
- tissue half life [3]: about 2 weeks
- amount in the treated limb compared to native avidin [4]: more than double
- distribution in the non target organs (blood, kidney, liver) [4]: lower distribution

Substance: OXavidinHABA 1 mM NaIO4: avidin oxidized with 1 mM NaIO4 in presence of 1 mM HABA
- KA [1]: 4.58e+06 ± 249000 M⁻¹
- N (stoichiometry) [1]: 2.5 ± 0.008
- BiotinDOTA binding % ± SD [5]: 99.0 ± 0.2%

Substance: PEGavidin: PEG-conjugated avidin prepared according to Caliceti [reference compound]
- tissue permanence compared to WTavidin [6]: did not affect the tissue permanence

Substance: OXavidin 40 mM NaIO4: avidin oxidized with 40 mM NaIO4 without HABA
- BiotinDOTA binding % ± SD [5]: 44.5 ± 0.9%

Substance: OXavidin 1 mM NaIO4: avidin oxidized with 1 mM NaIO4 without HABA
- BiotinDOTA binding % ± SD [5]: 77.2 ± 0.9%

Substance: WTavidin: wild type avidin, glycoprotein of about 68 kDa present in egg white, high affinity for biotin [reference compound]
- stoichiometry of interaction [1]: 3.0 molecules of ST2210 per molecule
- KA [1]: 3.45e+06 ± 307000 M⁻¹
- N (stoichiometry) [1]: 3.0 ± 0.016
- association constants (KA) [1]: 3.45e+06 M⁻¹
- haematoxylin/eosin staining of muscle [7]: no histological abnormalities
- distribution of 111In-ST2210 in non target organs [8]: similar
- BiotinDOTA binding % ± SD [5]: 100^@ %
- p (slope of sigmoidal curve) [2]: 14.7
- Tm [2]: 79.0 °C
- Tm ([2]; listed as Avidin): 79.0 ± 0.1 °C
- Tm ([2]; listed as avidin): 79.0 °C
- p (slope of sigmoidal curve) ([2]; listed as Avidin): 14.7 ± 0.3
- p (slope of sigmoidal curve) ([2]; listed as avidin): 14.7
- % ID/breast (+/− SD) at 24 h [9]: 8.5 (1.13) % ID/breast
- amount found in the mammary tissue [9]: 8.5 % ID
- tissue half life [3]: 2 h
- amount in the treated limb [10]: < 0.5 % ID/100 mg
- distribution in the non target organs (blood, kidney, liver) [4]: higher distribution

Substance: OXavidinHABA 5 mM NaIO4: avidin oxidized with 5 mM NaIO4 in presence of 1 mM HABA
- KA [1]: 5.42e+06 ± 590000 M⁻¹
- N (stoichiometry) [1]: 1.9 ± 0.012
- BiotinDOTA binding % ± SD [5]: 95.0 ± 1.7%

Substance: OXavidin 5 mM NaIO4: avidin oxidized with 5 mM NaIO4 without HABA
- BiotinDOTA binding % ± SD [5]: 55.7 ± 2.2%

Substance: OXavidin 10 mM NaIO4: avidin oxidized with 10 mM NaIO4 without HABA
- BiotinDOTA binding % ± SD [5]: 50.9% and 50.9 ± 2.4%

Substance: OXavidinHABA 20 mM NaIO4: avidin oxidized with 20 mM NaIO4 in presence of 1 mM HABA
- KA [1]: 2.5e+06 ± 132000 M⁻¹
- N (stoichiometry) [1]: 1.5 ± 0.007
- BiotinDOTA binding % ± SD [5]: 81.4%
- BiotinDOTA binding % ± SD ([5]; listed as OXavidinHABA 20 mM NaIO4 + 1 mM HABA): 81.4 ± 1.0 %

Substance: OXavidinHABA 40 mM NaIO4 + 1 mM HABA: avidin oxidized with 40 mM NaIO4 in presence of 1 mM HABA
- BiotinDOTA binding % ± SD [5]: 73.0 ± 0.6%

Substance: OXavidinHABA 10 mM NaIO4: avidin oxidized with 10 mM NaIO4 in presence of 1 mM HABA
- KA [1]: 3.34e+06 ± 212000 M⁻¹
- N (stoichiometry) [1]: 1.7 ± 0.008
- BiotinDOTA binding % ± SD [5]: 86.3%
- BiotinDOTA binding % ± SD ([5]; listed as OXavidinHABA 10 mM NaIO4 + 1 mM HABA): 86.3 ± 1.6 %

Substance: OXavidinHABA: HABA-saturated avidin oxidized with sodium periodate; NaIO4 concentration not stated at these places
- stoichiometry of interaction [1]: 1.7 molecules of ST2210 per molecule
- association constants (KA) [1]: 2.5e+06 M⁻¹
- haematoxylin/eosin staining of muscle [7]: no histological abnormalities
- specific captation of 111In-ST2210 in treated tissue compared with WTavidin ([8]; 2 hours from i.v. injection, 48 hours after avidination): much higher
- captation of second dose of 111In-ST2210 in treated limb ([8]; after a first dose of cold ST2210 24 hours before): comparable to that obtained with the single dose
- distribution of 111In-ST2210 in non target organs [8]: similar
- thermal denaturation reversibility [2]: irreversible
- p (slope of sigmoidal curve) [2]: 11.2 and 11.2 ± 0.4
- Tm [2]: 78.1 °C and 78.1 ± 0.3 °C
- tissue permanence compared to WTavidin [6]: increase of tissue permanence
- % ID/breast (+/− SD) at 24 h [9]: 65.8 (0.08) % ID/breast
- amount found in the mammary tissue [9]: 65.8 % ID
- tissue half life [3]: about 2 weeks
- residence in the brain [11]: about 12.65±6.59 % ID/100 mg of tissue
- effect on cancer lesions of the mammary gland [12]: significant reduction of cancer lesions
- amount in the treated limb [10]: 17 % ID/100 mg

Substance: OXavidin 20 mM NaIO4: avidin oxidized with 20 mM NaIO4 without HABA
- KA [1]: 645000 ± 56900 M⁻¹
- N (stoichiometry) [1]: 1.2 ± 0.012
- BiotinDOTA binding % ± SD [5]: 49.1% and 49.1 ± 2.1%
